In publication PMC6010091, “Inhibition of the β-carbonic anhydrase from the dandruff-producing fungus Malassezia globosa with monothiocarbamates” (Journal of Enzyme Inhibition and Medicinal Chemistry, 2017):

Biological target: T1, MgCA (Malassezia globosa, UniProt A8Q1N3)
T1 construct: gene MGL_1814; recombinant, purified; dimer in the homology model; Zn ligands C47, H103, C106
T1 sequence (A8Q1N3 1-241): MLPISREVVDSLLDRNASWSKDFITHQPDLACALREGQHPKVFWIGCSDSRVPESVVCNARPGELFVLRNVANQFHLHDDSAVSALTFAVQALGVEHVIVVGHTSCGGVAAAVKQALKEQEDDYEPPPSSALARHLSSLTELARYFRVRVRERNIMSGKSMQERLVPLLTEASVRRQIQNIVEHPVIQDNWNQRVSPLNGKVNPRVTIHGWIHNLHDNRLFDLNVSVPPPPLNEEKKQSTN
Test: stopped-flow CO2 hydration assay, Cheng-Prusoff
Format: biochemical

SMILES	Ki
CCCN(CCC)C(=O)S [compound 4, 4]	1.85 µM
CCCCN(CCCC)C(=O)S [compound 5, 5]	7.52 µM
CC(C)CN(CC(C)C)C(=O)S [compound 6, 6]	8.61 µM
CCCCN(CC)C(=O)S [compound 7, 7]	5.26 µM
CN(Cc1ccccc1)C(=O)S [compound 9, 9]	7.61 µM
O=C(S)N1CCOCC1 [compound 10, 10]	7.65 µM
O=C(S)N1CCNCC1 [compound 11, 11]	7.41 µM
O=C(S)N1CCN(c2ccc(F)cc2)CC1 [compound 12, 12]	8.33 µM
O=C(S)N1CCN(c2ccc(C(F)(F)F)cc2)CC1 [compound 13, 13]	4.22 µM
O=C(S)N1CCN(c2cccc(Cl)c2)CC1 [compound 14, 14]	15.9 µM
O=C(CN1CCN(C(=O)S)CC1)NC1CCCCC1 [compound 15, 15]	6.13 µM
S=C(S)SCc1ccccc1 [compound 16, 16]	8.12 µM
S=C(S)OCCc1ccccc1 [compound 17, 17]	16.2 µM
